1 molecule from patent publication US9533937B2, “Use of metal scavengers for removal of ruthenium residues” (Apeiron Synthesis S.A., priority 2013, dated 2017) can be followed below.

The data set can be described thus: Solubility in solvents. Type of data set: physicochemical.

As to `[C-]#[N+]CC(=O)[O-].[K+]` [CNCH2CO2K], the solubility in solvents result was “well soluble only in very polar solvents such as water and alcohols”.
